Experimental data reported in patent US20080249156A1, “Combinations of statins and anti-obesity agent and glitazones” (priority 2007, published 2008).
Like-named read-outs stand apart in the source and are kept apart here.

How the values were obtained:
[1] = not given; remark: listed apart in the source
[2] = Example 1, patient on rosiglitazone 4 mg once a day
[3] = Example 2, patient on rosiglitazone 4 mg twice a day and metformin 500 mg twice daily
[4] = Example 3, patient on rosiglitazone 8 mg once daily and metformin 500 mg once daily

CN(CCOc1ccc(CC2SC(=O)NC2=O)cc1)c1ccccn1 (stereo not drawn) [rosiglitazone]
increase: total cholesterol since beginning the rosiglitazone therapy [2] | total cholesterol since beginning the rosiglitazone therapy [3] | total cholesterol since beginning the rosiglitazone therapy [4] | body weight since beginning the rosiglitazone therapy [1, 2] | body weight since beginning the rosiglitazone therapy [1, 3] | body weight since beginning the rosiglitazone therapy [1, 4]
